Measured values reported in US12539289B2, “Phorbol ester compositions and methods of use for treating or reducing the duration of cytopenia” (BIOSUCCESS BIOTECH CO., LTD., priority 2014, dated 2026).

Experiments:
[1] = system: post-chemotherapy neutropenia; settings: cited from earlier work
[2] = system: neutropenia and thrombocytopenia; assay: Phase 2a study of phorbol ester in AML patients who receive induction chemotherapy; type: in vivo, human; settings: AML patients after 3+7 induction; TPA 0.125 mg/m^2 IV with G-CSF 400 μg support; standard deviation of 5 days; usual 20±3 days
Protocol: This is a single-arm, open label study. Ten (10) patients receive standard induction chemotherapy with idarubicin (12 mg/m2) or daunorubicin (60 mg/m2) on days 1, 2, 3 and Ara-C continuous (100-200 mg/m2/day) infusion on days 1-7. On Day 8 or 24 hours after completion of all scheduled Ara-C infusion, TPA is started at 0.125 mg/m^2 IV every two days, in addition to G-CSF (400 μg subcutaneously daily) support until absolute neutrophil count (ANC) above 1000/μL for two consecutive days.”
This study is designed to examine the efficacy of TPA as a supportive care agent to enhance bone marrow recovery in AML patients after induction chemotherapy. Study Objectives: • 1. Evaluate the safety and tolerability of TPA in AML patients after induction chemotherapy • 2. Evaluate preliminary efficacy in shortening of the duration of neutropenia and thrombocytopenia in AML patients after induction chemotherapy • 3. […] AML should be classified by FAB classification, and all subtypes are allowed and recorded during enrollment, except patients with M3 or acute promyelocytic leukemia. • 3. […]
Evaluation of neutropenia and thrombocytopenia after induction chemotherapy is done by daily hematological tests, including complete blood count and differential count. […] The duration of neutropenia and thrombocytopenia is assessed separately and the ANC and platelet counts should be plotted in a diagram for each patient. […]

CCCCCCCCCCCCCC(=O)O[C@@H]1[C@@H](C)[C@@]2(O)[C@@H](C=C(CO)C[C@]3(O)C(=O)C(C)=C[C@@H]23)[C@@H]2C(C)(C)[C@]12OC(C)=O [TPA, 12-O-tetradecanoylphorbol-13-acetate]
duration of post-chemotherapy neutropenia ([1]; acute myelocytic leukemia (AML) patients): capable of shortening the duration of post-chemotherapy neutropenia | tolerability ([1]; recommended Phase 2 dose 0.125 mg/m^2 daily up to 5 days a week×2 weeks): well tolerated with only minor adverse events | Duration of neutropenia or thrombocytopenia [2]: 12 days
